Laboratory results as given in PMC5571211 (Scientific Reports, 2017).

Key:
[1] = tested on: 5-LOX product formation (FLAP) in human neutrophils; test: 5-LOX product formation in intact human neutrophils stimulated with Ca2+-ionophore A23187; format: cell-based; settings: 5 h, read-out: IC50, formation of LTB4 and its isomers and of 5-H(p)ETE (5-LOX product formation); intact human neutrophils (PMNL), Ca2+-ionophore A23187, no AA supplementation
Experimental: After elution with methanol, samples were analyzed by RP-HPLC using a C-18 Radial-PAK column (Waters, Eschborn, Germany).

human recombinant 5-LOX = target: T1, human recombinant 5-LOX (Homo sapiens, UniProt P09917); test: Activity assay of isolated human recombinant 5-LOX (cell-free); format: biochemical; settings: cell-free assays, not further specified
T1 construct: made in house; host or cells: E. coli BL21
T1 sequence (P09917 1-674): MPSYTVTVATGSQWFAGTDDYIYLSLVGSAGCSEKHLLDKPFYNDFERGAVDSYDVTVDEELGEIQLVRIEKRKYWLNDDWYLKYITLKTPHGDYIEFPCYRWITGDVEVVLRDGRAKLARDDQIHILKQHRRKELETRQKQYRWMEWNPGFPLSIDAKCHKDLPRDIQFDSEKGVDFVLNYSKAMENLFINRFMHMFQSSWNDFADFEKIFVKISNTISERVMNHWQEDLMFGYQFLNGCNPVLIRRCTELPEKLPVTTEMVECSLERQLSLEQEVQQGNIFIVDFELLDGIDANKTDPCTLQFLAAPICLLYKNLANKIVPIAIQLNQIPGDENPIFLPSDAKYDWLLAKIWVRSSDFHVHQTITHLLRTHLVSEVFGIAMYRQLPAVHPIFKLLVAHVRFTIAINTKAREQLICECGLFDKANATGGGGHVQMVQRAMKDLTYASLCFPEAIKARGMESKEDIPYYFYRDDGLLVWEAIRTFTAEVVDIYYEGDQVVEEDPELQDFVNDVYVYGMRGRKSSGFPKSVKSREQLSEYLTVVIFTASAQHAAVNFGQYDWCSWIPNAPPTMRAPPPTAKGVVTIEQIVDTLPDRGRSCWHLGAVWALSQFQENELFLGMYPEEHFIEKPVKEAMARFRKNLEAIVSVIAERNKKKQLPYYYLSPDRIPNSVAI
Experimental: To determine 5-LOX product formation, aliquots (0.5 µg purified 5-LOX in 1 mL PBS plus 1 mM EDTA) were pre-incubated with the test compounds or vehicle (0.1% DMSO) on ice for 15 min and then stimulated with 20 µM AA and CaCl2 (2 mM) for 10 min at 37 °C. The reaction was stopped with one volume of ice-cold methanol and 5-LOX products were analyzed by RP-HPLC as previously described[58]. Briefly, 530 µl acidified PBS and 200 ng of internal PGB1 standard were added and solid phase extraction using C18 RP-columns (100 mg, UCT, Bristol, PA, USA) was performed. After elution with methanol, samples were analyzed by RP-HPLC using a C-18 Radial-PAK column (Waters, Eschborn, Germany). Unless stated otherwise, 5-LOX products include all-trans-isomers of LTB4 and 5-HpETE as well as its corresponding alcohol 5-HETE.

5-LOX/FLAP complex = target: T2, 5-LOX/FLAP complex (Homo sapiens, UniProt P20292); test: Proximity ligation assay of 5-LOX/FLAP complex assembly in monocytes; format: cell-based; settings: diflapolin 1 µM, MK886 0.3 µM, zileuton 3 µM
T2 construct: endogenous in cells; host or cells: freshly isolated human monocytes (immunofluorescence also in neutrophils)
T2 sequence (P20292 1-161): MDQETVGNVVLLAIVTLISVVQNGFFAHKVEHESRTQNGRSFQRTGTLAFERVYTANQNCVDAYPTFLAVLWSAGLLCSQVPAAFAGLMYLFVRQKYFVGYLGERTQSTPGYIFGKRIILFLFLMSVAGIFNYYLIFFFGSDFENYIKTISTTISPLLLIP
Experimental: In situ protein interaction of 5-LOX and FLAP was analyzed by proximity ligation assay as described before[37] and referring to the manufacturer’s protocol. In brief, freshly isolated monocytes were treated as described for IF above. Overnight incubations with primary antibodies were then treated for 1 h (37 °C) with oligonucleotide-labeled specific secondary antibodies (PLA probes anti-mouse MINUS and anti-rabbit PLUS). Formation of circled DNA sequences was induced by addition of ligase and oligonucleotide mixture (30 min at 37 °C). Rolling-circle-amplification of newly generated DNA template was performed (90 min, 37 °C) including hybridization of fluorescently-labeled oligonucleotides within the formed DNA strands, resulting in visualization of protein-protein interactions recognized as magenta-stained dots. Nuclear DNA staining with DAPI and image acquisition was performed as described above. Overview images were obtained using a Plan Neofluar 40/1.30 Oil (DIC III) objective (Carl Zeiss).

human recombinant LTA4-H = target: T3, human recombinant LTA4-H (Homo sapiens, UniProt P09960); test: LTA4 hydrolase activity, co-incubation of isolated 5-LOX and LTA4-H; format: biochemical; settings: diflapolin up to 10 µM, AUDA 10 µM, SC57461A 0.3 µM, zileuton 3 µM
T3 construct: gift of Dr. E. Proschak, Goethe University, Frankfurt
T3 sequence (P09960 2-611 limits assumed): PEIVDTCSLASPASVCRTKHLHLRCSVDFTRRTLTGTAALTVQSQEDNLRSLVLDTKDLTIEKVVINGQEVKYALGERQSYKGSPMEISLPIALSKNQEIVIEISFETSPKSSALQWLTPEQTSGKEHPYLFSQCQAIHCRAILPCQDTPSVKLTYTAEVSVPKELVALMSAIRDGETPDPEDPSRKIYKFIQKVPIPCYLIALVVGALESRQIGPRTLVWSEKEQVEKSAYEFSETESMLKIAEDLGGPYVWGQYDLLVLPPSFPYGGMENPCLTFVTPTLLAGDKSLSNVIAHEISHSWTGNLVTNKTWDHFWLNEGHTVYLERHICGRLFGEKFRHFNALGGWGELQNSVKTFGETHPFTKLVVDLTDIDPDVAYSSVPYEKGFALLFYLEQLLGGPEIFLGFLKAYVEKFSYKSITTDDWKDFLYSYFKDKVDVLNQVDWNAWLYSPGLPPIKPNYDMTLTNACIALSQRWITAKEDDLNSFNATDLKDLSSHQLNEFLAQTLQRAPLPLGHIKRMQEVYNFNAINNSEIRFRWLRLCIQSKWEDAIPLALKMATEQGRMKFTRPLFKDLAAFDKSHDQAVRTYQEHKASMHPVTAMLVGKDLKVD
Experimental: In order to determine the activity of LTA4-H, aliquots of human recombinant 5-LOX (0.5 µg) and 10 µg of human recombinant LTA4-H (kindly provided by Dr. E. Proschak, Goethe University, Frankfurt, Germany) were suspended in 1 mL PBS containing 1 mM EDTA and pre-incubated with test compounds or vehicle (0.1% DMSO) for 10 min on ice. The specific LTA4-H inhibitor SC57461A (0.3 µM) was used as reference drug. Subsequently, incubations were stimulated with 20 µM AA and 2 mM CaCl2 for additional 10 min at 37 °C. The reaction was stopped by 1 volume ice-cold methanol, 530 µL acidified PBS and 200 ng of PGB1 as internal standard were added and subjected to solid phase extraction. All LTB4 isomers were analyzed by HPLC as described above.

[2] = tested on: AA release (cPLA2) in neutrophils; test: [3H]-labeled arachidonic acid release in neutrophils; format: cell-based, human; settings: [3H]AA-pre-labelled neutrophils; diflapolin 1 µM, RSC-3388 10 µM
Experimental: Freshly isolated human neutrophils were resuspended in RPMI 1640 medium to a final cell density of 10^7 cells/mL and incubated with 0.5 µCi/mL of [^3H]-labeled arachidonic acid ([^3H]-AA), corresponding to a concentration of 5 nM of the fatty acid, for 2 hrs (37 °C, 5% CO2). Cells were washed twice to remove unincorporated [^3H]-AA and resuspended in PBS containing glucose (0.1%), fatty acid-free BSA (2 mg/mL) and CaCl2 (1 mM). […] The reaction was stopped on ice and cells were centrifuged at 1,200 rpm (10 min, 4 °C). The collected supernatants were combined with 2 mL of liquid scintillation counting solution (Rotiszint eco plus, Carl Roth, Karlsruhe, Germany) and assayed for radioactivity by scintillation counting (Micro Beta Trilux, Perkin Elmer, Waltham, MA).

| IC50 [1] [nM] | IC50 (human recombinant 5-LOX) [nM] | 5-LOX/FLAP complex assembly (PLA) (5-LOX/FLAP complex) | SMILES | effect on LTA4-H activity (LTB4 formation) (human recombinant LTA4-H) | release of AA upon A23187-stimulation [2] |
| --- | --- | --- | --- | --- | --- |
| 10 to 14 | > 10000 | comparable effects | CC(C)c1ccc2c(c1)c(SC(C)(C)C)c(CC(C)(C)C(=O)O)n2Cc1ccc(Cl)cc1 [MK886, 3-[1-(4-chlorobenzyl)-3-t-butyl-thio-5-isopropylindol-2-yl]-2,2 - dimethylpropanoic acid] |  |  |
|  |  |  | Cc1cc(OCc2nc3ccccc3s2)ccc1NC(=O)Nc1ccc(Cl)c(Cl)c1 [diflapolin, N-[4-(benzothiazol-2-ylmethoxy)-2-methylphenyl]-N′-(3,4-dichlorophenyl)urea] | failed to inhibit | did not inhibit |
